Laboratory results taken from patent publication US12410143B2, “Therapeutic inhibitors of the reverse mode of ATP synthase” (priority 2017, dated 2025).
Entries after “also recorded” stand apart in the source; their conditions may differ. Where two headings read alike, the source gives them in different places.

What was measured:
[1] = target: T1, F1F0 ATP hydrolase (Bos taurus, UniProt P00829+P19483); settings: cited from earlier work
T1 construct: in NADH-linked and NADPH-linked sub-mitochondrial (SMP) assays respectively; host or cells: sub-mitochondrial particles (SMPs)

[2] = tested on: xenograft mouse models of cancer; settings: data in [16]; cited from earlier work
[3] = tested on: HL-1 cardiac muscle cell line; settings: 3 μM; HL-1 cells; data from [12]; cited from earlier work
[4] = tested on: ex vivo rat heart; settings: 10 μM [11]; cited from earlier work
[5] = tested on: NCI-60 cancer cell lines; assay: NCI-60 one-dose in vitro assay; assay type: cell-based, human
Text: FIGS. 1, 2, 3, 4, 5, 6 show results from the NCI-60 one-dose in vitro assay at the Developmental Therapeutics Program (DTP), at the National Cancer Institute (NCI, Bethesda, MD, USA). Its protocol is well known to those of the art, and it tests the effect, if any, of a test compound on the growth/survivability of a cancer cell line as compared to the no compound control. […] However, a constant is that this 59 always has representative cell lines from leukemia, melanoma and cancers of the lung, colon, brain, ovary, breast, prostate and kidney. In a one-dose NCI compound test report, NCI report a number for each cell line, which they call “Growth Percent”, which is its growth relative to the no-compound control, and relative to the time zero number of cells. This reported parameter allows detection of both growth inhibition (values between 0 and 100) and lethality (values less than 0). For example, an NCI “Growth Percent” value of 100 means no growth inhibition. Value of 40 means 60% growth inhibition. Value of 0 means no net growth over the course of the experiment. Value of −40 means 60% lethality. Value of −100 means all cells are dead. I don't present NCI one-dose data in this original format. Instead, if the NCI “Growth Percent” value for a cell is positive, it is manipulated: [100 minus this original NCI-60 “Growth Percent” data point], to yield the percentage “Growth Inhibition”. If the original NCI “Growth Percent” value for a cell is negative, it is made positive to be the percentage of original cancer cells (at time zero) killed: “Percentage Killed” {and in these cases, of course, all growth has been inhibited, so percentage “Growth Inhibition” is then specified to be 100% for this cancer cell line}. In my one-dose figures, “Growth Inhibition” (0-100%) is presented on the x-axis and, if applicable, “Percentage Killed” (0-100%) further along on the x-axis. The latter is applicable when there is not just cancer growth inhibition but a reduction in the number of cancer cells from the start time i.e. when the compound is not merely slowing cancer growth, but is actively reducing the number of cancer cells from the starting number. In cases where there is only growth inhibition, only “Growth inhibition” is presented on the x-axis.

[6] = cited from earlier work
[7] = tested on: NCI-60 cancer cell lines; assay: NCI-60 five-dose in vitro assay; assay type: cell-based, human; settings: mean of all 59 cell lines
Text: The compounds of this invention act by a distinctly different mechanism, upon cancer cells, than oligomycin. […] The degree of (dis)similarity can be measured using the COMPARE algorithm, which employs a Pearson correlation coefficient. […] This mechanistic distinction is vital because polyketide F1F0 ATP synthase inhibitors are poisonous to normal cells, which means they fail in cancer xenograft mouse experiments and are without clinical utility.
Results from the NCI-60 five-dose in vitro assay at the Developmental Therapeutics Program (DTP), at the National Cancer Institute (NCI, Bethesda, MD, USA). In this assay, which is well known to those of the art, a compound is tested, in vitro, against 59 different cancer cell lines, sourced from 9 different tissue types, across 5 different concentrations. On the y-axis is the aforementioned “Growth Percentage” parameter used by NCI, which is growth relative to the no-compound control, and relative to the time zero number of cells. This parameter allows detection of both growth inhibition (values between 0 and 100) and lethality (values less than 0). […] Each cancer cell line has a GI50 value and the “mean GI50” of all 59 cell lines can be calculated.

[8] = tested on: mouse cortical neurons; settings: 100 μM [13]; cited from earlier work
[9] = target: T2, F1F0-ATP hydrolysis (Homo sapiens, UniProt P06576+P25705); settings: cited from earlier work
T2 construct: BTB06584 potency information (isn't an EC50) is from a whole cell study [13]

[10] = target: T3, F1F0-ATP synthesis (Homo sapiens, UniProt P06576+P25705); settings: [13]; cited from earlier work
T3 construct: BTB06584 potency information (isn't an EC50) is from a whole cell study [13]

[11] = target: T1, F1F0 ATP hydrolase; assay: NADH-linked sub-mitochondrial (SMP) assay of F1F0 ATP hydrolysis; assay type: biochemical, bovine; settings: NADH-linked and NADPH-linked SMP assays [5-6]
Text: For example, by separately assaying (in space and/or time) the compounds's effect upon ATP synthesis and ATP hydrolysis by ATP synthase (in its entirety or, less preferably, a component part of it). Then comparing these assay results. The greater the inhibition of reverse vs. forward mode, the more preferred this compound is for anti-cancer use. A further method is by screening/seeking compounds that inhibit ATP hydrolysis more than synthesis in submitochondrial particles (SMPs). ATP hydrolysis can be assayed by (non-limiting example) a spectroscopic assay for NADH fluorescence that incubates the SMPs with pyruvate kinase and lactate dehydrogenase enzymes (assay well-known to those of the art). ATP synthesis can be assayed by (non-limiting example) a spectroscopic assay for NADPH fluorescence that incubates the SMPs with hexokinase and glucose-6-phosphate dehydrogenase enzymes (assay well-known to those of the art). These assays are reported in any one of [5, 7, 8, 11, 12, 13, 36], and/or as referenced therein, all of which are herein incorporated in their entirety.
Compounds from, selected as specific anti-cancer therapeutics by the invention of this disclosure, selected because they inhibit the reverse, more than the forward, mode of ATP synthase. EC50 and IC50 used interchangeably. […]

[12] = rats, cited from earlier work
[13] = Formula (I) examples, SMP data from [5], read-out: EC50 F1F0 ATP hydrolase

N#CN=C(Nc1ccc(Cl)cc1)NC(Cn1ccnc1)c1ccc(Cl)cc1Cl (centres unmarked) [4-Cl/CN]
EC50 [1, 13]: 8800 nM

CC[C@H](O)C[C@@H]1O[C@]2(CC[C@H]1C)C[C@@H]1OC(=O)/C=C/[C@](C)(O)[C@@H](O)[C@H](C)[C@@H](O)[C@@H](O[C@H]3C[C@@H](OC)[C@@H](O)[C@@H](C)O3)[C@H](O)[C@](C)(O)CCC/C=C\[C@H]3C[C@H](C)CO[C@@]3(O)C[C@H](O2)[C@H]1C [cytovaricin]
efficacy in xenograft mouse models of cancer [2]: don't work

CC[C@@H](O)C[C@H]1CCC[C@@]2(C[C@@H]3OC(=O)/C=C/[C@@](C)(O)[C@@H](O)[C@H](C)[C@@H](O)[C@H](O[C@H]4CC[C@H](N(C)C)[C@H](C)O4)[C@@H](O)[C@](C)(O)CCCCC/C=C/[C@@H]4CC(C)(C)O[C@@]4(O)C[C@H](O2)[C@H]3C)O1 [ossamycin]
efficacy in xenograft mouse models of cancer [2]: don't work

CC[C@H]1/C=C/C=C/C[C@@H](C)[C@H](O)[C@@](C)(O)C(=O)[C@@H](C)[C@H](O)[C@@H](C)C(=O)[C@@H](C)[C@H](O)[C@@H](C)/C=C/C(=O)O[C@@H]2[C@H](C)[C@H](CC1)O[C@@]1(O[C@@H](C[C@@H](C)O)[C@@H](C)CC1=O)[C@H]2C [Oligomycin B]
O2 consumption change [3]: −40%

CC(=O)Nc1ccc(S(=O)(=O)N2Cc3ccccc3N(Cc3cnc[nH]3)C(CCc3ccccc3)C2)cc1 (centres unmarked) [4-(AcNH)—Ph/SO2/5-yl]
EC50 ([1]; Formula (II) examples, SMP data from [8], read-out: EC50F1F0ATP hydrolase): 2980 nM

CC1(C)Oc2ccc(S(=O)(=O)N3CCCCC3)cc2[C@@H](N(Cc2ncc[nH]2)c2ccc(Cl)cc2)[C@@H]1O [BMS-199264]
harm to normal cells (ex vivo rat heart) [4]: does not harm ex vivo rat heart; also recorded: doesn't harm normal cells
anti-cancer activity (NCI one-dose assay) ([5]; 10 μM): exerts anti-cancer activity

N#CN=C(Nc1cccc(Cl)c1)NC(Cn1ccnc1)c1ccc(Cl)cc1Cl (centres unmarked) [3-CL/CN]
EC50 [1, 13]: 9170 nM

CC[C@H]1/C=C/C=C/C[C@@H](C)[C@H](O)[C@@](C)(O)C(=O)[C@@H](C)[C@H](O)[C@@H](C)C(=O)[C@@H](C)[C@H](O)[C@@H](C)/C=C/C(=O)O[C@@H]2[C@H](C)[C@H](CC1)O[C@]1(CC[C@H](C)[C@H](C[C@@H](C)O)O1)[C@H]2C [oligomycin]
time within which healthy rats are killed ([6]; 1 mg/kg, n=10): ≤ 48 h
LD33 ([6]; rats): 0.5 mg/kg
inhibition of F1F0 ATP hydrolysis versus F1F0 ATP synthesis ([1]; SMP assays [11]): inhibits F1F0 ATP hydrolysis less than F1F0 ATP synthesis

N#CN=C(Nc1cccc(Cl)c1Cl)NC(Cn1ccnc1)c1ccc(Cl)cc1Cl (centres unmarked) [2,3-Cl2/CN]
EC50 [1, 13]: 2490 nM

N#Cc1cccc(C(=O)/N=C(\Nc2ccc(Cl)cc2)NC(Cn2ccnc2)c2ccc(Cl)cc2Cl)c1 (centres unmarked) [19a]
anti-cancer activity (NCI one-dose assay) ([5]; 10 μM): more anti-cancer activity than BMS-199264

N#Cc1cccc(C(=O)/N=C(\Nc2ccc(Cl)cc2)N[C@@H](Cn2ccnc2)c2ccc(Cl)cc2Cl)c1 [6a]
anti-cancer activity (NCI one-dose assay) ([5]; 10 μM): exerted anti-cancer activity
inhibits F1F0-ATP hydrolysis ([1]; stereoisomers of 19a [5-6]): not

CC1(C)Oc2ccc(S(=O)(=O)N3CCCCC3)cc2[C@@H](N(Cc2ncc[nH]2)c2ccc(Cl)cc2)[C@@H]1O.Cl [BMS-199264 hydrochloride]
anti-cancer activity (NCI one-dose assay) ([5]; 10 μM): Anti-cancer activity
anti-cancer activity (NCI one-dose assay) ([5]; 100 μM): Anti-cancer activity
GI50 [7]: 3900 nM

O=C(Oc1cc(S(=O)(=O)c2ccccc2)ccc1[N+](=O)O)c1ccc(Cl)cc1 [BTB06584]
harm to normal cells (mouse cortical neurons) [8]: isn't harmful to normal cells
inhibitory potency for F1F0-ATP hydrolysis ([9]; 10 μM [13]): none
concentration required for inhibiting F1F0-ATP hydrolysis ([9]; whole cell study [13]): ≥ 100 µM
inhibition of F1F0-ATP synthesis [10]: not inhibiting F1F0-ATP synthesis
anti-cancer activity (NCI one-dose assay) ([5]; 10 μM): No anti-cancer activity and none
anti-cancer activity (NCI one-dose assay) ([5]; 100 μM): exerts anti-cancer activity

CCC(=O)N=C(Nc1ccc(Cl)cc1)NC(Cn1ccnc1)c1ccc(Cl)cc1Cl (centres unmarked) [4-Cl/C(═O)Et]
EC50 [1, 13]: 2270 nM

N#Cc1ccc(C(=O)N=C(Nc2ccc(Cl)cc2)NC(Cn2ccnc2)c2ccc(Cl)cc2Cl)cc1 (centres unmarked) [4-Cl/C(═O)4-CN—Ph]
EC50 [1, 13]: 280 nM

N#Cc1cccc(C(=O)/N=C(\Nc2ccc(Cl)cc2)N[C@H](Cn2ccnc2)c2ccc(Cl)cc2Cl)c1
[EC50 F1F0 ATP synthesis/EC50 F1F0 ATP hydrolysis] ratio [11]: > 5,556
Cmax [12]: 21 µM
volume of distribution [12]: 2.37 L/kg
half-life in blood ([12]; intravenously applied drug): 2.1 h
orally bioavailable ([12]; polyethyleneglycol:water:ethanol, 1:1:1): 47%
EC50 ([1]; Best Mode structure, SMP assay [5-6], read-out: EC50 against F1F0ATP hydrolysis): 18 nM
